Experimental data published in patent US12415939B2, “Nano-adhesive and surface primer compound and use thereof” (The Regents of the University of California, priority 2015, dated 2025).

Assays:
[1] = Lap shear test of cured PMA resin on primed mica; settings: first value of each pair (mica)
Description: (§1) 1 wt % primer solution was spread on mica, glass, tooth enamel, or a silicon wafer and incubated for 1 min, followed by thorough washing with methanol (for MDP, P1-P3) or DMSO (for P4) and drying by flowing nitrogen. The surfaces were exposed to a basic aqueous solution (pH 9, using sodium hydroxide), incubated for 1 min, and drying by flowing nitrogen (see FIG. 52). The methacrylic comonomer blend (Bis-GMA, TEGDMA, DMAEMA and CQ) was packed in a gelatin capsule (size #4, 5-mm diameter, Torpac Inc.) and placed up on top of the primer-treated substrates. The comonomer blend was cured (or crosslinked) for 1 min using a portable dental curing lamp (Foshan Liang Ya Dental Co., LY-A180, 420-480 nm, 1200-2000 mW·cm^−2) (see FIG. 53). Uniaxial compression was applied to the capsule at a rate of 0.05 inch min^−1 using a materials testing system (MTS Bionix 200) until the capsules are separated from the substrate. The lap shear fracture measurements were repeated at least 10 times for each condition.

[2] = Lap shear test of cured PMA resin on primed silica/glass; settings: second value of each pair (silica)
Description: as §1

[3] = Lap shear test of cured PMA resin on primed tooth enamel; design: species or system human
Description: as §1

[4] = SFA adhesion of cured PMA resin between primer-treated mica surfaces
Description: Atomically-smooth muscovite mica sheets were freshly cleaved (thickness of 2-5 μm) and attached on another large freshly cleaved mica backing sheet under a laminar flow hood and placed in a desiccator for clean storage. To ensure use of a fresh surface for each experiment, mica was peeled away from the backing sheet and glued on cylindrical disks using an epoxy glue (EPON 1004 F® from Exxon Chemicals). In each experiment, the mica surfaces were treated with one of the primer solutions, as described for the lap shear experiments, and then mounted in the SFA in a cross cylindrical geometry. In contrast to typical SFA experiments, which use an interferometric method to calculate the disk-disk separation distances and thus the interaction forces, in the SFA used here for adhesion testing, the disk separations were directly measured using semiconductor strain-gauged double cantilever springs (k=1000-10000 N/m)(see FIG. 67). After separating the surfaces, 100 […]1 of comonomer blend was injected between the two surfaces. Then, ˜600 mN of load was applied, followed by visible light curing for 1 min using the portable dental curing lamp (see FIG. 54G). Adhesion strength of cured polymer toward the mica was measured by detaching (unloading) two surfaces. All loading and unloading were performed using a coarse micrometer at the velocity of […]. The SFA measurements were repeated at least 5 times for each condition.

[5] = QCM-D adsorption of primers; type: physicochemical
Description: A ‘static cell’ (often called ‘Open Module’) QCM-D (Q-Sense, Biolin Scientific) was employed to quantitatively evaluate the adsorption of each primer onto SiO2 surface using a quartz sensor (QSX 303, Biolin Scientific). Changes in resonance frequency (ΔF) and dissipation (ΔD) of the SiO2 were recorded and used to measure the adsorbed mass and layer viscoelasticity, respectively, of the primer deposited on the sensor. In detail, pure solvent (100 μl) was dropped onto the sensor and equilibrated for ˜20-30 min. Then, 2 wt % primer solution (100 μl) was dropped onto the sensor (this is labeled “Solution Drop-in” in FIG. 51) and equilibrated until the frequency and dissipation signals stabilized. To remove unbound primers, the sensor was rinsed with solvents (this is labeled “Solvent Rinsing” in FIG. 51) and equilibrated until frequency and dissipation signals stabilized.
Mass loss of P3 and P4 during the rinsing was negligible compared to P2 which lost 60% of initial mass, indicating outstanding adsorption efficiency of catechol-containing primers on SiO2 surfaces even compared to mussel foot protein adsorption (˜30% loss of mfp-3s^3). The priming thickness of P4 estimated by QCM-D is ˜3.1 nm which agrees with the average height of AFM images (˜3.5 nm), assuming that QCM-D measures the average thickness of a uniform layer. The smaller average thickness of P4 (˜3.1 nm) compared to the molecular contour length (˜4.8 nm) may be attributed to the flexible alkyl spacer in P4. The possibility of a softer, more flexible layer with P4 is supported by a higher change in dissipation (ΔD) compared to other primers.

[6] = AFM height profiles of adsorbed primers; type: physicochemical
Description: Each primer solution (1 wt %) was prepared in methanol (for P1-P3) or DMSO (for P4). The primer solution was drop cast onto a freshly cleaved mica or glass surface, and kept at room temperature for 1 min. Subsequently, the surfaces were thoroughly rinsed with the respective solvents and dried with argon. All images, surface profiles and surfaces roughnesses were collected using an Asylum MFP-3D standard system (Asylum Research, Santa Barbara, CA) using silicon cantilevers (FORTGG-50, Applied NanoStructures, Santa Clara, CA) (FIGS. 48C and 49).

[7] = Cyclic voltammetry of catechol oxidation; type: physicochemical; settings: 5 mM in DI water
Description: (§2) Cyclic voltammetry was performed on a Versastat 3 potentiostat from Ametek Co. These analyses were carried out using a three-electrode cell: a Pt wire as the counter electrode, an Ag/AgCl reference electrode, and a Carbon paste electrode (CPE) served as the working electrode. CPE is the best choice for adhesive materials because of its ability to be completely polished before each experiment. Catechol auto-oxidation was avoided by performing all electrochemical experiments with degassed deionized water in a glove bag under argon. Scan rate 1 mV s-1 was used for all experiments. CV of 5 mM synthesized polymers and 5 mM methyl catechol, a simple catechol-containing compound, were compared. Oxidation of Catechol carrying molecules occurred at more positive potentials than methyl catechol, indicating the unique structure of the dispersions provide shielding effects that stabilized catechol groups (FIG. 3).
Cyclic voltammetry was performed on a Versastat 3 potentiostat from Ametek Co. (Berwyn, PA). These analyses were carried out using a three-electrode cell: a Pt wire as the counter electrode, an Ag/AgCl reference electrode, and a Carbon paste electrode (CPE) served as the working electrode. CPE is the best choice for adhesive materials because of its ability to be completely polished before each experiment.
as §2, with “s^−1” for “s-1”, “molecules” for “polymers”, “groups. Z-Cat-Ben with an oxidation peak at 840 mV is more resistant to oxidation than the other species” for “groups”, “42).” for “3).”

[8] = Surface forces apparatus (SFA) cohesion/adhesion between thin films on mica; type: physicochemical
Description: The interaction between two surfaces can be measured with nano-Newton level force resolution and Angstrom level resolution in the separation distance between the surfaces. The details of the SFA techniques have been describe in a work by Israelachvili et al. In a typical SFA experiment (FIG. 2C), the distance and the force between the surfaces are measured simultaneously. To begin with, the instrument is calibrated at large separation distances. When the two surfaces are not interacting, i.e., they are separated by large distances, the change in the separation between them is equal to the distance through which the motor moves the lower surface towards or away from the upper surface (or the upper surface driven by the piezo-tube moves towards the lower surface). However, once the surfaces are close enough to start interacting with each other, the measured separation distance deviates from the expected separation calibrated when there is no force between the surfaces. This deviation is due to the deflection of the double cantilever spring and is directly proportional to the force acting normally between the two opposing surfaces. Thus the normal force can be measured using Hooke's law, F=kΔx, where k is the spring constant of the double-cantilever spring and Δx=Dactual−Dapplied is the deflection of the spring, determined by taking the difference between the applied change in position of one of the surfaces Dapplied and the actual change in distance measured between the surfaces Dactual. The actual distance, Dactual, between the surfaces can be measured by multiple beam interferometry (MBI) and will be discussed below.
The distance between the surfaces, shape of the interface and the refractive index of the media between the surfaces can be accurately determined by Multiple Beam Interferometry (MBI) technique. In this technique, white light is directed through two back-silvered mica surfaces (or uniform and same thickness). As a white light passes between the mica surfaces, it undergoes interference due to the optical trap set up by the back silver on each of these surfaces giving rise to discrete wavelengths of light (FIG. 2C). These wavelengths of light are resolved in a spectrometer creating interference fringes known as ‘fringes of equal chromatic order’ (FECO). Since mica is birefringent, the FECO appears as doublets and termed as β and γ. Alternate fringes are termed as odd and even fringes with odd fringes having nodes at the center and even fringes with anti-nodes in the center. The FECO is then recorded on a camera and analyzed to determine the distance between the surfaces using the following equations: […]
The adhesion/cohesion energy of the synthetic zwitterionic molecules was investigated in SFA (SurForce LLC, Santa Barbara, CA). Two molecularly smooth freshly cleaved back silvered mica surfaces glued on cylindrical silica discs of radius of curvature, R˜2 cm, were mounted in the SFA and 50 μL of a colloidal dispersion of the synthetic molecules in DI water were injected between the surfaces at different concentrations (C=0.5-5 mM) and the forces between the thin films of the molecules were measured by Multiple Beam Interferometry (MBI). The adhesion forces between Z-Cat-C10 molecules on various surfaces, e.g., silica and copper, were also measured by AFM (MFP-3D, Asylum research, Goleta, CA) in DI water and ambient conditions, respectively, at room temperature. AFM probes with a silicon dioxide particle (10, 5, and 1 μm, respectively) on a silicon nitride (SN) cantilever-0.6 N m^−1 were purchased from Novascan Technologies, Inc (Ames, IA). Cantilever spring constants were measured for each force run. Images of Z-Cat-C10 coating on silicon wafer and copper plates were visualized in an AFM. […]

[9] = Contact angle measurements on SAM-modified substrates; type: physicochemical; settings: SAM-modified nano-grooved SiO2
Description: The nano-grooved SiO2 substrates passivated with Z-Cat-Ben or Z-Cat-Ben-F SAMs were prepared with the same procedure described above. For the reference substrate, the pre-cleaned and ultraviolet/ozone-treated (for 10 min) nano-grooved SiO2 substrate was passivated with n-decyltrichlorosilane (Gelest Inc.) in toluene solution (1% by volume) at 80° C. for 20 min in ambient air. Then, the substrate was subsequently sonicated in toluene and rinsed with additional toluene several times. Anhydrous chlorobenzene (50 μL) was used as a droplet dropping on the substrates. All contact angle images were taken at the direction perpendicular to nano-grooves in the substrates using Dataphysics OCA 15EC goniometer.

[10] = OFET characterization (saturation hole mobility)
From the text: The OFETs were fabricated onto nano-grooved SiO2 substrates prepared by rubbing n^++Si (500 μm)/SiO2 (300 nm) substrate (International Wafer Services Co.) with a diamond lapping disc with particle sizes of 100 nm (Allied High Tech Products Inc.) as described in detail in the previous reports. The Ni (5 nm)/Au (50 nm) source and drain electrodes were patterned on the SiO2 dielectrics through a conventional photolithography process. For OFETs with Ni source and drain electrodes, an additional Ni (10 nm) layer was deposited on top of the pre-deposited Au electrodes. All metal electrodes were deposited by electron beam evaporation at 7×10^−7 Torr. Then, the substrates were sonicated in acetone and isopropanol for cleaning, and were kept in an oven at >100° C. for overnight. After ultraviolet/ozone treatment of pre-cleaned nano-grooved SiO2 substrates for 10 min, the substrates were passivated with the Z-Cat-Ben or Z-Cat-Ben-F SAM by dropping SAM water solution (5 mM) onto the substrates for ˜1 min. The substrates were subsequently rinsed with deionized water for ˜1 min, and were kept in a low vacuum for 10 min to remove residual water. The PCDTPT (1-Material Inc.) was then cast from a chlorobenzene solution (0.25 mg mL^−1) through the sandwich casting in a nitrogen-filled glove box. The devices were then cured at 200° C. for 1 min prior to measurements, and were tested using a probe station (Signatone Co.) in a nitrogen-filled glove box. Data were collected by a Keithley 4200 system.
The field-effect mobilities in the saturation regime were extracted using the following equation, IDS=(W/2L)Cμ(VGS−VT)^2 (7) where, W is the channel width, L is the channel length, C is the gate dielectric capacitance per unit area, μ is the carrier mobility in the saturation regime, IDS is the drain-source current, and VGS is the gate-source voltage. Channel width/length is 1000/200 μm for the devices used in this study. Transistor Characteristics of OFETs with Z-Cat-Ben and Z-Cat-Ben-F: Contact Angle Measurements: […]

Row | thickness from QCM-D [5] | surface concentration of adsorbed layer ([5]; Sauerbrey, after rinsing) | mass loss during rinsing ([5]; of initial mass) | adsorption seen by AFM ([6]; 1 wt.% solution, mica and glass) | AFM height ([6]; mica) | hard-wall thickness ([8]; SAMs from 5 mM, mica) | SAM thickness on each mica surface ([8]; half of hard-wall) | contact angle θ of chlorobenzene droplet [9] | SMILES | lap shear strength σshear,max [1] | lap shear strength σshear,max [2] | lap shear strength σshear,max [3] | increase in adhesion vs plain mica (no primer) [4] | adhesion pressure Pad ([4]; n=5) | stability in water to oxidation (shelf life) [7] | cohesion energy Wc between SAMs ([8]; 5 mM in DI water, mica) | saturation hole mobility μ ([10]; Au source and drain electrodes) | saturation hole mobility ([10]; Ni source and drain electrodes)
1 | ~3.1 nm | 345 ng/cm^2 | negligible | densely primed | ~3.5 nm | – | – | – | C=CC(=O)OCCCCCCCCOC(=O)CCc1ccc(O)c(O)c1 [P4, 8-((3-(3,4-dihydroxyphenyl)propanoyl)oxy)octyl acrylate] | 0.9±0.1 MPa | 4.5±0.5 MPa | 3.0±0.3 MPa | ~4 fold | 81.7±18.5 kPa | – | – | – | –
2 | – | – | – | – | – | – | – | – | C=CC(=O)OCCC[Si](OC)(OC)OC [Silane, 3-trimethoxysilylpropyl acrylate, reference compound] | 0.9±0.4 MPa | 3.8±1.1 MPa | no increase in the lap shear strength | – | – | – | – | – | –
3 | – | – | – | – | – | 2.6±0.4 nm | ~1.3 nm | < 10 ° | C[N+](C)(CCCc1cc(C(F)(F)F)cc(C(F)(F)F)c1)CCOP(=O)([O-])OCCCc1ccc(O)c(O)c1 [Z-Cat-Ben-F] | – | – | – | – | – | stable (shelf life) in water to oxidation | 3.3±1.0 mJ/m^2 | 26±5 cm^2 V^−1 s^−1 | 46±4 cm^2 V^−1 s^−1
